Assay results: PubChem BioAssay (NCI)
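Step 1: Grow cells in 96-well plates. Step 2: Expose to compound for 48 hours at 5 concentrations. Step 3: Interpolate endpoints linearly; if unreached, use highest concentration. The concentration for 50% growth inhibition is given as GI50. TGI denotes the concentration required for complete inhibition of growth.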

Key:
Assay in all cases: NCI tumour cell line growth inhibition, 48 h
[1] = tested on: HL-60(TB) leukemia
[2] = tested on: HOP-62 NSCLC
[3] = tested on: HS 578T breast
[4] = tested on: SK-MEL-2 melanoma
[5] = tested on: SNB-19 CNS
[6] = tested on: SNB-75 CNS
[7] = tested on: SR leukemia
[8] = tested on: EKVX NSCLC
[9] = tested on: RPMI-8226 leukemia
[10] = tested on: RXF 393 renal
[11] = tested on: NCI-H226 lung
[12] = tested on: NCI-H460 lung
[13] = tested on: SW-620 colon
[14] = tested on: 786-0 renal
[15] = tested on: A498 renal
[16] = tested on: A549 NSCLC
[17] = tested on: ACHN renal
[18] = tested on: CAKI-1 renal
[19] = tested on: CCRF-CEM leukemia
[20] = tested on: COLO 205 colon
[21] = tested on: DU-145 prostate
[22] = tested on: HCC-2998 colon
[23] = tested on: HCT-116 colon
[24] = tested on: HCT-15 colon
[25] = tested on: HOP-92 NSCLC
[26] = tested on: HT29 colon
[27] = tested on: IGROV1 ovarian
[28] = tested on: K-562 leukemia
[29] = tested on: KM12 colon
[30] = tested on: M14 melanoma
[31] = tested on: MALME-3M melanoma
[32] = tested on: MCF7 breast
[33] = tested on: MDA-MB-231 breast
[34] = tested on: MDA-MB-435
[35] = tested on: MOLT-4 leukemia
[36] = tested on: NCI-H23 lung
[37] = tested on: NCI-H522 lung
[38] = tested on: NCI/ADR-RES ovarian
[39] = tested on: OVCAR-3 ovarian
[40] = tested on: OVCAR-4 ovarian
[41] = tested on: OVCAR-5 ovarian
[42] = tested on: OVCAR-8 ovarian
[43] = tested on: PC-3 prostate
[44] = tested on: SF-268 CNS
[45] = tested on: SF-539 CNS
[46] = tested on: SK-MEL-28 melanoma
[47] = tested on: SK-OV-3 ovarian
[48] = tested on: SN12C renal
[49] = tested on: T-47D breast
[50] = tested on: TK-10 renal
[51] = tested on: U251 CNS
[52] = tested on: UACC-257 melanoma
[53] = tested on: UACC-62 melanoma
[54] = tested on: UO-31 renal
[55] = tested on: LOX IMVI melanoma
[56] = tested on: SF-295 CNS
[57] = tested on: SK-MEL-5 melanoma

[2H]C([2H])([2H])Oc1cc(F)ccc1/C=C/C(=O)/C=C(/C=C/c1ccc(F)cc1OC([2H])([2H])[2H])OB(F)F
GI50 [1]: 1.68 µM
TGI [1]: 6.67 µM
GI50 [2]: 3.11 µM
TGI [2]: > 100 µM
GI50 [3]: 5.67 µM
TGI [3]: > 100 µM
GI50 [4]: 2.99 µM
TGI [4]: > 100 µM
GI50 [5]: 3.47 µM
TGI [5]: > 100 µM
GI50 [6]: 2.39 µM
TGI [6]: > 100 µM
GI50 [7]: 2.67 µM
TGI [7]: > 100 µM

C#C[C@]1(O)CC[C@H]2[C@@H]3CC=C4c5nc(Nc6ncccn6)sc5CC[C@]4(C)[C@H]3CC[C@@]21C
GI50 [8]: 2.99 µM
TGI [8]: > 100 µM
GI50 [3]: 1.25 µM
TGI [3]: 4.14 µM
GI50 [9]: 0.421 µM
TGI [9]: 2.11 µM
GI50 [10]: 0.451 µM
TGI [10]: 1.69 µM
GI50 [5]: 2.77 µM
TGI [5]: > 100 µM

C[C@H]1[C@H](C)CC[C@]2(C(=O)OCCCC[P+](c3ccccc3)(c3ccccc3)c3ccccc3)CC[C@]3(C)C(=CC[C@@H]4[C@@]5(C)CC[C@H](OC(=O)C(Cl)Cl)C(C)(C)[C@@H]5CC[C@]43C)[C@H]12
GI50 [11]: 0.354 µM
TGI [11]: 1.82 µM
GI50 [12]: 0.283 µM
TGI [12]: 0.975 µM
GI50 [13]: 0.349 µM
TGI [13]: 1.29 µM

C=C1c2c(C)nn(-c3ccc(OC)cc3)c2N(C)C23C[C@@H]1C1(C)c4c(C)nn(-c5ccc(OC)cc5)c4N(C)C(C)(C[C@H]12)C3 (some centres not stated)
GI50 [14]: 4.23 µM
TGI [14]: 19.7 µM
GI50 [15]: 2.47 µM
TGI [15]: 16.4 µM
GI50 [16]: 2.69 µM
TGI [16]: 55.7 µM
GI50 [17]: 3.3 µM
TGI [17]: 19 µM
GI50 [18]: 2.67 µM
TGI [18]: > 100 µM
GI50 [19]: 3.41 µM
TGI [19]: > 100 µM
GI50 [20]: 2.2 µM
TGI [20]: 5.11 µM
GI50 [21]: 4.38 µM
TGI [21]: > 100 µM
GI50 [22]: 4.07 µM
TGI [22]: > 100 µM
GI50 [23]: 2.82 µM
TGI [23]: 12.8 µM
GI50 [24]: 3.11 µM
TGI [24]: > 100 µM
GI50 [1]: 2.54 µM
TGI [1]: > 100 µM
GI50 [2]: 4.28 µM
TGI [2]: 18.9 µM
GI50 [25]: 1.18 µM
TGI [25]: 5.4 µM
GI50 [3]: 6.23 µM
TGI [3]: 77.4 µM
GI50 [26]: 3.24 µM
TGI [26]: > 100 µM
GI50 [27]: 7.54 µM
TGI [27]: > 100 µM
GI50 [28]: 3.6 µM
TGI [28]: > 100 µM
GI50 [29]: 3.75 µM
TGI [29]: > 100 µM
GI50 [30]: 3.88 µM
TGI [30]: > 100 µM
GI50 [31]: 3.24 µM
TGI [31]: > 100 µM
GI50 [32]: 2.69 µM
TGI [32]: > 100 µM
GI50 [33]: 3.11 µM
TGI [33]: 15.7 µM
GI50 [34]: 3.4 µM
TGI [34]: > 100 µM
GI50 [35]: 2.6 µM
TGI [35]: > 100 µM
GI50 [11]: 4.44 µM
TGI [11]: 63 µM
GI50 [36]: 3.86 µM
TGI [36]: 53.6 µM
GI50 [37]: 2.77 µM
TGI [37]: 11 µM
GI50 [38]: 4.04 µM
TGI [38]: > 100 µM
GI50 [39]: 3.27 µM
TGI [39]: > 100 µM
GI50 [40]: 3.56 µM
TGI [40]: 54.6 µM
GI50 [41]: 11.3 µM
TGI [41]: > 100 µM
GI50 [42]: 3.4 µM
TGI [42]: 39.3 µM
GI50 [43]: 1.75 µM
TGI [43]: 7.77 µM
GI50 [10]: 1.9 µM
TGI [10]: 6.08 µM
GI50 [44]: 3.63 µM
TGI [44]: 70.5 µM
GI50 [45]: 3.16 µM
TGI [45]: 16.8 µM
GI50 [4]: 3.23 µM
TGI [4]: 9.94 µM
GI50 [46]: 5.86 µM
TGI [46]: > 100 µM
GI50 [47]: 3.39 µM
TGI [47]: 16.2 µM
GI50 [48]: 3.65 µM
TGI [48]: > 100 µM
GI50 [5]: 4.34 µM
TGI [5]: 55.8 µM
GI50 [7]: 3.16 µM
TGI [7]: > 100 µM
GI50 [13]: 3.63 µM
TGI [13]: > 100 µM
GI50 [49]: 1.81 µM
TGI [49]: > 100 µM
GI50 [50]: 3.63 µM
TGI [50]: 11.8 µM
GI50 [51]: 2.67 µM
GI50 [52]: 2.68 µM
TGI [52]: > 100 µM
GI50 [53]: 2.86 µM
TGI [53]: > 100 µM
GI50 [54]: 2.61 µM
TGI [54]: > 100 µM

COc1cc(C2NCCC(c3ccccc3)(c3ccccc3)N2)cc(OC)c1OC (configuration not stated)
TGI [14]: > 100 µM
TGI [15]: 88.6 µM
TGI [16]: > 100 µM
TGI [17]: > 100 µM
TGI [19]: > 100 µM
TGI [20]: 42.4 µM
TGI [21]: > 100 µM
TGI [8]: > 100 µM
TGI [22]: 42.7 µM
TGI [23]: > 100 µM
TGI [24]: > 100 µM
TGI [1]: 90.2 µM
TGI [2]: > 100 µM
TGI [25]: 27.9 µM
TGI [3]: 79.5 µM
TGI [26]: 79.4 µM
TGI [27]: > 100 µM
TGI [29]: > 100 µM
TGI [55]: 47.7 µM
TGI [30]: 27.2 µM
TGI [31]: 34 µM
TGI [32]: 85.8 µM
TGI [33]: > 100 µM
TGI [34]: > 100 µM
TGI [11]: 43.8 µM
TGI [36]: > 100 µM
TGI [12]: > 100 µM
TGI [38]: > 100 µM
TGI [40]: > 100 µM
TGI [42]: > 100 µM
TGI [10]: > 100 µM
TGI [44]: > 100 µM
TGI [56]: 35.8 µM
TGI [45]: 29.7 µM
TGI [46]: 35.6 µM
TGI [57]: 32.1 µM
TGI [47]: > 100 µM
TGI [48]: > 100 µM
TGI [5]: > 100 µM
TGI [6]: > 100 µM
TGI [7]: > 100 µM
TGI [13]: > 100 µM
TGI [49]: > 100 µM
TGI [50]: > 100 µM
TGI [51]: > 100 µM
TGI [52]: 33.9 µM
TGI [53]: > 100 µM
TGI [54]: 66.2 µM
